Where “and” joins values, the source holds several entries; their conditions need not be identical. Equal entries are not always repeated.
Key:
Experiment in all cases: Competitive isoTOP-ABPP, cell lysates
Assay type in all cases: binding
MLTK C22 (Q9NYL2) = MLTK C22 (Q9NYL2) (Homo sapiens, UniProt Q9NYL2); settings: for isoTOP-ABPP reactivity ratio, Q9NYL2_C22 / isoTOP-ABPP reactivity profile ratio, Q9NYL2_C22: 500 μm, in-vitro_ramos_231
CASP8 C360 (Q14790) = CASP8 C360 (Q14790) (Homo sapiens, UniProt Q14790); settings: for isoTOP-ABPP reactivity ratio, Q14790_C360: 500 μm
Sequence of CASP8 C360 (Q14790) (Q14790 whole entry): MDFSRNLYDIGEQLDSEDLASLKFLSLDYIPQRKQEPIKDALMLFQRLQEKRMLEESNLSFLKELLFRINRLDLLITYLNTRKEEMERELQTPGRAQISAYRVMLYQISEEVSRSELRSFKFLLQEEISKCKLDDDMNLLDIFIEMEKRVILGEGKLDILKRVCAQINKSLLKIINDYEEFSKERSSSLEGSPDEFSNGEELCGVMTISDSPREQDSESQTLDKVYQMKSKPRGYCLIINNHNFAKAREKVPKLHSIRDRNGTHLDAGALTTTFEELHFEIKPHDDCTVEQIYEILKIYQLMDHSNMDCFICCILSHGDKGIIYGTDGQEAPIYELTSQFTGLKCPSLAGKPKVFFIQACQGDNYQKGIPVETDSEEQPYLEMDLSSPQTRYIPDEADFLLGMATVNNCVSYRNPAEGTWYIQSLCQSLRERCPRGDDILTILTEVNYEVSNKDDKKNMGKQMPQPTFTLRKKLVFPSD

KDM4B C694 (O94953) = biological target: T1, KDM4B C694 (O94953) (Homo sapiens, UniProt O94953); settings: for isoTOP-ABPP ratio (reactivity profile), O94953_C694: 500 μm in-vitro ramos_231; for isoTOP-ABPP reactivity ratio, O94953_C694 / isoTOP-ABPP reactivity profile ratio, O94953_C694: 500 μm
T1 sequence (O94953 1-1096): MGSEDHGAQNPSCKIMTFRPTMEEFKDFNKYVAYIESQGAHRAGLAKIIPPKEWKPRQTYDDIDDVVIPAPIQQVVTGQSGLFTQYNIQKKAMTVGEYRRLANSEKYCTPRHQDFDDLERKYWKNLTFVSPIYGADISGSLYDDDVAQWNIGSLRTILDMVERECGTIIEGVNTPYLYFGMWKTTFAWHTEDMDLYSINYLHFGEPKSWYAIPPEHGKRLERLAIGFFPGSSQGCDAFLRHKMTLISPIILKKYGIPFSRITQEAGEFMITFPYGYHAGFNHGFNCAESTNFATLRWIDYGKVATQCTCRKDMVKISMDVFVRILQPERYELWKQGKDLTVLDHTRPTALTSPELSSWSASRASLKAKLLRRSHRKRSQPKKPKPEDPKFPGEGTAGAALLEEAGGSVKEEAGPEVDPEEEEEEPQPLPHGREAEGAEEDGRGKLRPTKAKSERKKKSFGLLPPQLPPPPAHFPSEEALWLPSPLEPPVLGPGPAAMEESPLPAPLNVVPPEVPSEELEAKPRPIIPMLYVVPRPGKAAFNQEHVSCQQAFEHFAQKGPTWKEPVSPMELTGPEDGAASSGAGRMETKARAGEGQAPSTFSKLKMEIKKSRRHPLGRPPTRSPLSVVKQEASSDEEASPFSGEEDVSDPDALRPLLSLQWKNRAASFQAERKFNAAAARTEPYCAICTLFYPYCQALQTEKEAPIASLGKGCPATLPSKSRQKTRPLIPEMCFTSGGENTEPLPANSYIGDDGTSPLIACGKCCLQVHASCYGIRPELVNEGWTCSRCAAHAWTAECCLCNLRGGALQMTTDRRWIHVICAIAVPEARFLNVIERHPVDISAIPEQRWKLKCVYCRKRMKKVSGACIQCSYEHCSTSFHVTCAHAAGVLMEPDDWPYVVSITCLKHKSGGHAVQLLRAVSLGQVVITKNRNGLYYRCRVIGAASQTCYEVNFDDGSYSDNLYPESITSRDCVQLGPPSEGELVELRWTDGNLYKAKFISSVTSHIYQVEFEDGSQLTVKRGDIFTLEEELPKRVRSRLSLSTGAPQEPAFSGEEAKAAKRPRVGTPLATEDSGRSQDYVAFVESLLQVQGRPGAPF

IRF8 C306 (Q02556) = biological target: T2, IRF8 C306 (Q02556) (Homo sapiens, UniProt Q02556); settings: for isoTOP-ABPP reactivity ratio, Q02556_C306 / isoTOP-ABPP reactivity profile ratio, Q02556_C306: 500 μm, in-vitro_ramos
T2 sequence (Q02556 1-426): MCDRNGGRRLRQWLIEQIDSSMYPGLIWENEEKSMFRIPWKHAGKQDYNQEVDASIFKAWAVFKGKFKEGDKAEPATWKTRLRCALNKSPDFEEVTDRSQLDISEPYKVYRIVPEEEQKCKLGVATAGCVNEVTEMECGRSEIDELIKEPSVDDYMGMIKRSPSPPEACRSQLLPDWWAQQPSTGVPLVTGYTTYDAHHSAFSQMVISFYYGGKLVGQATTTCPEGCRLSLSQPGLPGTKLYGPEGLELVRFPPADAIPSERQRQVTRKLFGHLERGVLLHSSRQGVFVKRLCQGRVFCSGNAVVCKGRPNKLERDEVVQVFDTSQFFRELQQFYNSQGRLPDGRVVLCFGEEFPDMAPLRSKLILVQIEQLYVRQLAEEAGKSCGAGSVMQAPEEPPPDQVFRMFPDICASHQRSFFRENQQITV

PFKFB4 C159 (Q16877) = PFKFB4 C159 (Q16877) (Homo sapiens, UniProt Q16877); settings: 500 μm, in-vitro_ramos
Sequence of PFKFB4 C159 (Q16877) (Q16877 whole entry): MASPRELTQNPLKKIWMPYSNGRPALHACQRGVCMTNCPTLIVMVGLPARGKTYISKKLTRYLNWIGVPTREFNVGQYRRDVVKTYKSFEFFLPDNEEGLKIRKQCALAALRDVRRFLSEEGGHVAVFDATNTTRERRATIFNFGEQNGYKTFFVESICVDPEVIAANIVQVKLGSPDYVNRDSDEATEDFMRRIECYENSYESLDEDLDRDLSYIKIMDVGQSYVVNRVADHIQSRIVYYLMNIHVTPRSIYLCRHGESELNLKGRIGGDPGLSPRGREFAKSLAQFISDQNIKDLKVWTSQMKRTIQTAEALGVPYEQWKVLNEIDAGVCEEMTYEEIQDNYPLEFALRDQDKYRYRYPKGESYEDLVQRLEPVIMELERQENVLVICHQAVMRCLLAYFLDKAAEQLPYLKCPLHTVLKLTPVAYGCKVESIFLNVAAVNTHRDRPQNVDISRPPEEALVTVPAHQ

Sequence of MLTK C22 (Q9NYL2) (Q9NYL2 whole entry): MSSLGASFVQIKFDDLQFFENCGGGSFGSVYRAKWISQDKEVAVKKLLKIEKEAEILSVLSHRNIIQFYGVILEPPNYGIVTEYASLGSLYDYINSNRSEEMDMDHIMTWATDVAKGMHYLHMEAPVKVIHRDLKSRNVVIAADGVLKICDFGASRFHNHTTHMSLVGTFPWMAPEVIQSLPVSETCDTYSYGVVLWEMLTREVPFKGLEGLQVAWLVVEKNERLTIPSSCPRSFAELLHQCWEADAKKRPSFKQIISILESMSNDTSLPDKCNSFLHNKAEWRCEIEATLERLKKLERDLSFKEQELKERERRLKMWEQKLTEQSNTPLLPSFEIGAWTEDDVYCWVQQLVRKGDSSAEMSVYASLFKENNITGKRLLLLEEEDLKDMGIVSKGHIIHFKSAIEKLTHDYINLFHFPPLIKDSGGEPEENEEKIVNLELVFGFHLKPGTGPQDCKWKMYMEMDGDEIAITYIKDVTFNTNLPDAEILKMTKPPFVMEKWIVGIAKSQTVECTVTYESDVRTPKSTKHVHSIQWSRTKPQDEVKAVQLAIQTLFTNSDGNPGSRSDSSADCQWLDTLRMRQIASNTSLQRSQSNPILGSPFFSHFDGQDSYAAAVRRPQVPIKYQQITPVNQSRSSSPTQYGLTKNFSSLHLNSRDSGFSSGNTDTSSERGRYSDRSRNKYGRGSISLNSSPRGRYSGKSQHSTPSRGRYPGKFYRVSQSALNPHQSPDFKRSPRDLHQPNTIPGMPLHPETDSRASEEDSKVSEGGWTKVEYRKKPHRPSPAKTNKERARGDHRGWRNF

Question: How did the “isoTOP-ABPP ratio (reactivity profile), Q9NYL2_C22” value (MLTK C22 (Q9NYL2); 500 μm in-vitro ramos_231) turn out when `CC(C)CCOCCNC(=O)CCl` [compound 27] was run?
Answer: 1.1

Question: What about the “isoTOP-ABPP ratio (reactivity profile), Q14790_C360” value (CASP8 C360 (Q14790); 500 μm in-vitro ramos) of the same compound?
Answer: 1.2

Question: What about the “isoTOP-ABPP ratio (reactivity profile), Q14790_C360” value (CASP8 C360 (Q14790); 500 μm in-vitro ramos_231) of the same compound?
Answer: 0.8

Question: What about the “isoTOP-ABPP ratio (reactivity profile), O94953_C694” value (KDM4B C694 (O94953)) of the same compound?
Answer: 1.4 and 1.0

Question: And the “isoTOP-ABPP ratio (reactivity profile), Q02556_C306” value (IRF8 C306 (Q02556); 500 μm in-vitro ramos_231)?
Answer: 1.1

Question: What does the source list for `COc1ccccc1OCCNC(=O)CCl` [compound 28]?
Answer: isoTOP-ABPP ratio (reactivity profile), Q9NYL2_C22 (MLTK C22 (Q9NYL2); 500 μm in-vitro ramos_231): 1.4; isoTOP-ABPP ratio (reactivity profile), Q14790_C360 (CASP8 C360 (Q14790); 500 μm in-vitro ramos_231): 1.1

Question: For `O=C(CCl)N1CCN(CC(=O)N2CCOCC2)CC1` [compound 29], which “isoTOP-ABPP ratio (reactivity profile), Q9NYL2_C22” value (MLTK C22 (Q9NYL2); 500 μm in-vitro ramos_231) is on record?
Answer: 1.2

Question: What about the “isoTOP-ABPP ratio (reactivity profile), O94953_C694” value (KDM4B C694 (O94953)) of the same compound?
Answer: 1.2

Question: What does the source list for `CCN(CC)c1ccc(S(N)(=O)=O)cc1NC(=O)CCl` [compound 30]?
Answer: isoTOP-ABPP ratio (reactivity profile), Q9NYL2_C22 (MLTK C22 (Q9NYL2); 500 μm in-vitro ramos): 1.1; isoTOP-ABPP ratio (reactivity profile), Q14790_C360 (CASP8 C360 (Q14790); 500 μm in-vitro ramos): 2.0; isoTOP-ABPP reactivity ratio, Q14790_C360 (CASP8 C360 (Q14790); in-vitro_ramos): 5.2; isoTOP-ABPP reactivity ratio, Q02556_C306 (IRF8 C306 (Q02556)): 2.0

Question: Which “isoTOP-ABPP reactivity ratio, Q9NYL2_C22” value (MLTK C22 (Q9NYL2)) does the source give for `CC(C)(C)c1cc(NC(=O)CCl)on1` [compound 32] here?
Answer: 2.1

Question: And the “isoTOP-ABPP reactivity ratio, Q16877_C159” value (PFKFB4 C159 (Q16877))?
Answer: 1.5

Question: For `O=C(CCl)N(Cc1ccc(F)cc1)C12CC3CC(CC(C3)C1)C2` [compound 34], which “isoTOP-ABPP reactivity ratio, Q9NYL2_C22” value (MLTK C22 (Q9NYL2)) is on record?
Answer: 0.8

Question: And the “isoTOP-ABPP reactivity ratio, Q16877_C159” value (PFKFB4 C159 (Q16877))?
Answer: 1.4

Question: Which results are given for `O=C(CCl)Nc1ccccc1C1CCCCCC1` [compound 35]?
Answer: isoTOP-ABPP reactivity ratio, Q14790_C360 (CASP8 C360 (Q14790); in-vitro_ramos): 1.3; isoTOP-ABPP reactivity ratio, O94953_C694 (KDM4B C694 (O94953); in-vitro_ramos): 1.1; isoTOP-ABPP reactivity ratio, Q02556_C306 (IRF8 C306 (Q02556)): 1.2

Question: Which results are given for `C=CC(=O)N1CCC(c2noc3ccc(F)cc23)CC1` [compound 37]?
Answer: isoTOP-ABPP reactivity ratio, Q14790_C360 (CASP8 C360 (Q14790); in-vitro_ramos): 1.0; isoTOP-ABPP reactivity ratio, O94953_C694 (KDM4B C694 (O94953); in-vitro_ramos): 1.1

Question: `C=CC(=O)Nc1cc(F)c(N2CCN(C(=O)OC(C)(C)C)CC2)c(F)c1` [compound 38] was tested. Which “isoTOP-ABPP reactivity ratio, Q9NYL2_C22” value (MLTK C22 (Q9NYL2)) did it give?
Answer: 1.2

Question: And the “isoTOP-ABPP reactivity ratio, Q14790_C360” value (CASP8 C360 (Q14790); in-vitro_ramos)?
Answer: 4.1

Question: What about the “isoTOP-ABPP reactivity ratio, Q14790_C360” value (CASP8 C360 (Q14790); in-vitro_ramos_231) of the same compound?
Answer: 1.0

Question: And the “isoTOP-ABPP reactivity ratio, O94953_C694” value (KDM4B C694 (O94953); in-vitro_ramos)?
Answer: 2.4

Question: For `C=CC(=O)Nc1cc(C)c(Br)cc1C` [compound 40], which “isoTOP-ABPP reactivity ratio, Q16877_C159” value (PFKFB4 C159 (Q16877)) is on record?
Answer: 1.2

Question: What about the “isoTOP-ABPP reactivity ratio, Q02556_C306” value (IRF8 C306 (Q02556)) of the same compound?
Answer: 0.9

Question: What does the source list for `Cc1ccc(C=C(C#N)C(=O)NCCN2CCOCC2)cc1` [compound 41]?
Answer: isoTOP-ABPP reactivity ratio, Q9NYL2_C22 (MLTK C22 (Q9NYL2)): 1.5; isoTOP-ABPP reactivity ratio, Q14790_C360 (CASP8 C360 (Q14790); in-vitro_ramos): 0.8; isoTOP-ABPP reactivity ratio, Q14790_C360 (CASP8 C360 (Q14790); in-vitro_ramos_231): 1.0; isoTOP-ABPP reactivity ratio, Q02556_C306 (IRF8 C306 (Q02556)): 1.4

Question: `N#CC(=Cc1ccc(-c2ccccc2Cl)o1)C(N)=O` [compound 42] was tested. Which “isoTOP-ABPP reactivity profile ratio, O94953_C694” value (KDM4B C694 (O94953); in-vitro_ramos) did it give?
Answer: 0.9

Question: And the “isoTOP-ABPP reactivity profile ratio, Q02556_C306” value (IRF8 C306 (Q02556))?
Answer: 0.9

Question: For `COc1cc(NC(=O)CCl)cc(OC)c1` [compound 43], which “isoTOP-ABPP reactivity profile ratio, Q9NYL2_C22” value (MLTK C22 (Q9NYL2)) is on record?
Answer: 2.9

Question: And the “isoTOP-ABPP reactivity profile ratio, O94953_C694” value (KDM4B C694 (O94953); in-vitro_ramos_231)?
Answer: 20.0

Question: And the “isoTOP-ABPP reactivity profile ratio, Q02556_C306” value (IRF8 C306 (Q02556))?
Answer: 2.7

Question: With `CC1CCc2ccccc2N1C(=O)CCl` (stereo not drawn) [compound 45] as the compound, how does the “isoTOP-ABPP reactivity profile ratio, Q9NYL2_C22” value (MLTK C22 (Q9NYL2)) read?
Answer: 20.0

Question: Which “isoTOP-ABPP reactivity profile ratio, Q16877_C159” value (PFKFB4 C159 (Q16877)) does the source give for `O=C(CCl)Nc1cccc2ncccc12` [compound 51] here?
Answer: 1.1

Question: What about the “isoTOP-ABPP reactivity profile ratio, O94953_C694” value (KDM4B C694 (O94953); in-vitro_ramos) of the same compound?
Answer: 1.4

Question: And the “isoTOP-ABPP reactivity profile ratio, Q02556_C306” value (IRF8 C306 (Q02556))?
Answer: 1.5

Question: With `O=C(CCl)Nc1ccc(-c2ccccc2)cc1` [compound 52] as the compound, how does the “isoTOP-ABPP reactivity profile ratio, O94953_C694” value (KDM4B C694 (O94953); in-vitro_ramos) read?
Answer: 1.4

Reference: patent US10670605B2, “Cysteine reactive probes and uses thereof” (The Scripps Research Institute, priority 2015, dated 2020)
